Earlier results on one substance are cited in patent publication US4681764A, “Porous and spherical carbonaceous product” (Kureha Kagaku Kogyo Kabushiki Kaisha, priority 1979, dated 1987).

For the data set the following is noted: in vivo.

For the substance oxidized starch, the “stimulation of the intestinal wall” value is “side-reaction of stimulating the intestinal wall”.
